Legend:
[1] = system: eWAT and colon mRNA expression; assay: Quantitative real-time PCR of eWAT and colon of HFD-F mice; format: in vivo; conditions: 30 mg/kg/day by gavage
Source text: C57BL/6J male mice were fed a high fat diet (HFD) containing 59 KJ% fat plus 1% cholesterol, w/o sugar (ssniff ® EF R/M acc. D12330 mod. 22,7 ME/kg) and fructose (HFD-F) in drinking water (42 g/L), or normal chow diet for 61 days. Food intake was estimated as the difference of weight between the offered and the remnant amount of food at 3-days intervals. The food was provided as pressed pellets and the residual spillage was not considered. After 7 days, HFD-F mice were randomized to receive HFD-F alone or in combination with compound 2 (30 mg/kg/day) by gavage until the end of the experiment. Doses of each agent were chosen according to previously published data. Mice were housed under controlled temperature (22°C) and photoperiods (12:12-h light/dark cycle), allowed unrestricted access to standard mouse chow and tap water. The experimental protocol was approved by the Animal Care and Use Committee of the University of Perugia and by the Italian Minister of Health and Istituto Superiore di Sanità (Italy) and was in agreement with the European guidelines for use of experimental animals (permission n. 583/2017-PR). The general health of the animals was monitored daily by the Veterinarian in the animal facility. At the day of sacrifice, fed mice were deeply anesthetized with a mixture of tiletamine hypochloride and zolazepam hypochloride/xylazine at a dose of 50/5 mg/kg and sacrificed before 12 a.m.
RNA was extracted from eWAT and colon with Direct-zol™ RNA MiniPrep w/Zymo-Spin™ IIC Columns (Zymo Research, Irvine, CA) and it was subjected to reverse transcription with FastGene Scriptase Basic Kit (Nippon Genetics Europe) in a 20 μL reaction volume.
For real time PCR, 50 ng cDNA were amplified in a 20 μL solution containing 200 nM of each primer and 10 μL of SYBR Select Master Mix (Thermo Fisher Scientific, Waltham, MA, United States). All reactions were performed in triplicate, and the thermal cycling conditions were as follows: 10 min at 95°C, followed by 40 cycles of 95°C for 10 s and 60°C for 45 s with QuantStudio™ 3 Real-Time PCR System (Applied Biosystems). The relative mRNA expression was calculated and expressed as 2−(ΔΔCt). Expression of the respective gene was normalized against Gapdh mRNA as an internal control. The following primers for Real-Time PCR were used: mouse-Gapdh: ctgagtatgtcgtggagtctac and gttggtggtgcaggatgcattg; mouse-Srebf1: gatcaaagaggagccagtgc and tagatggtggctgctgagtg; mouse-Fasn: tcaagatgaaggtggcagaggtgct and ttgagcagtgccgggattcgg; mouse-Pgc1α: cttagcactcagaaccatgcag and aatgctcttcgctttattgctc; mouse-Fxr: actggaccacgaagatcagatt and gagcgtactcctcctgagtcat; mouse-adiponectin: tgacagatcagctcgagtgg and cagtgccgtcagttcttgtg; mouse-Tnf-α: ccaccacgctcttctgtcta and agggtctgggccatagaact; mouse-ucp2: ttgcccgtaatgccattgtc and gcaagggaggtcatctgtca; mouse-cd11b gtcagagtctgcctccgtgt and cagggtctaaagccaggtca; mouse-pparγ: gccagtttcgatccgtagaa and aatccttggccctctgagat; mouse-Il-1β: gctgaaagctctccacctca and aggccacaggtattttgtcg; mouse-Gcg: ccaagattttgtgcagtggtt and ccttcagcatgcctctcaaa.

LogD octanol/PBS pH 7.4 = format: physicochemical
Protocol: LogD. Measurements 40 µL of selected compounds were dissolved in 1960 µL of PBS pH 7.4/Octanol. Samples were shacked for 2 h at rt, 10 µL of each phase were withdrawn, diluted in 490 µL of MeOH, and analyzed by LC-MSMS. The ratio of mass signal area obtained in octanol and PBS at pH 7.4 and in organic solvent was employed to calculate LogD.

[2] = Metabolic stability in liver S9 fraction; format: in vitro ADME
Protocol: (§1) Metabolic Stability. All compounds were tested at the final concentration of 1 µM in a 50 mM potassium phosphate buffer (pH 7.4) containing 1% DMSO as vehicle. For microsomes assay, the incubation mixtures contained 0.15 mg of Human liver microsomes (Sigma-Aldrich, St. Louis, MO, United States), 5 mM MgCl2, 1 mM NADPH, 5 mM glucose 6-phosphate, 0.4 U mL^−1 glucose 6-phosphate dehydrogenase. For S9 fraction analysis, the buffer contained 0.15 mg of S9 proteins (Sigma-Aldrich, St. Louis, MO, United States), 0.3 mM NADPH, 5.6 mM glucose-6-phosphate, 0.6 units/mL glucose-6-phosphate dehydrogenase, 5.8 mM UDP-glucuronic acid, 0.05 mM acetyl-CoA, 0.5 mM dithiothreitol, 0.5 mM 3′-phosphoadenosine 5′-phosphosulfate, 1 mM glutathione, 0.2 mM acetyl carnitine, 4 units/mL carnitine acetyl transferase, 0.5 mM glycine, and 0.5 mM taurine.
Samples were kept at 37°C and aliquots were removed at 0, 5, 15, 30, 45, 60, 90, 120, 150 min after protein additions. The reaction was stopped by adding 200 µL of ice-cold acetonitrile to withdrawn aliquots. After 2 h, samples were centrifuged for 10 min at 10,000 rpm, and supernatants were subjected to LC-MS/MS analysis. […]
In vitro intrinsic clearance (Clint expressed as µL/min/mg) was calculated according to the following formula: Clint = Vx 0.693/t1/2 were V = volume of reaction (µL)/protein in the incubation (mg). […]

[3] = Metabolic stability in human liver microsomes; format: in vitro ADME
Protocol: as §1
Samples were kept at 37°C and aliquots were removed at 0, 5, 15, 30, 45, 60, 90, 120, 150 min after protein additions. The reaction was stopped by adding 200 µL of ice-cold acetonitrile to withdrawn aliquots. After 2 h, samples were centrifuged for 10 min at 10,000 rpm, and supernatants were subjected to LC-MS/MS analysis.
The slope of the linear regression of the curve obtained reporting the natural logarithm of compound area versus incubation time (−k) was used in the conversion to in vitro t1/2 values by t1/2 = […].
In vitro intrinsic clearance (Clint expressed as µL/min/mg) was calculated according to the following formula: Clint = Vx 0.693/t1/2 were V = volume of reaction (µL)/protein in the incubation (mg). Testosterone was used as a positive control for microsome and phase I enzymes, and 7-hydroxycoumarin was used as positive control for phase II enzymes.

## O=C(O)c1cccc(-c2ccc(OCc3ccc4ccccc4n3)cc2)c1 [Compound 2, 4'-(quinolin-2-ylmethoxy)-[1,1′-biphenyl]-3-carboxylic acid]
[1]
  colon expression of Gcg: upregulated
  colon expression of Il-1β: strongly reduced
  eWAT expression of Cd11b: robustly reduced
  eWAT expression of Tnf-α: robustly reduced
  eWAT expression of Ucp2: upregulated
LogD octanol/PBS pH 7.4
  LogD: proper
LogD octanol/PBS pH 7.4; octanol/PBS
  logD at 2 h: 2
[2]; pH 7.4
  microsomal CLint at 1 µM: 6 µL/min/mg
[2]; pH 7.4, read-out: S9 fraction t1/2
  half-life at 1 µM: 6.42 h
[3]
  stability to Phase I enzymes contained in microsomal fraction: highly stable
[3]; pH 7.4, human liver microsomes, 1 µM
  microsomal CLint at 1 µM: 4 µL/min/mg
[3]; pH 7.4, human liver microsomes, 1 µM, read-out: Microsomes t1/2
  half-life at 1 µM: 9.63 h
